From patent publication US20110190336A1, “AZABENZIMIDAZOLONES” (CARA THERAPEUTICS, INC., priority 2008, published 2011)

Target: T1, human DP2 receptor (Homo sapiens, UniProt Q9Y5Y4)
T1 construct: expressed in transfected cells; host or cells: CHO-K1 FLP-In (Invitrogen, catalog no. R758-07), stably transfected
T1 sequence (Q9Y5Y4 1-395): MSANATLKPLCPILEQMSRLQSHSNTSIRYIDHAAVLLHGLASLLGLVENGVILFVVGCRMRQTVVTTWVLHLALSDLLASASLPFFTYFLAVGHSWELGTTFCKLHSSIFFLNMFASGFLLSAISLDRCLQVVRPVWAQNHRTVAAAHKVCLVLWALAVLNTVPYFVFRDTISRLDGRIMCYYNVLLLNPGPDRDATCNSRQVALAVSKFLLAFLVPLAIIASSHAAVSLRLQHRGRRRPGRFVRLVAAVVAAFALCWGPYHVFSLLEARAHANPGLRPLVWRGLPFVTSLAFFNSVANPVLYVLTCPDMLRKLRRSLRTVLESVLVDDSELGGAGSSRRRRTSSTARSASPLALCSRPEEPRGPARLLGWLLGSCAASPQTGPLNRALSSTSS
Test: Prostaglandin D2 binding inhibition assay (scintillation proximity assay, 3H PGD2, membranes of transfected CHO cells)
Settings: SPA, 5.5 nM 3H PGD2, CHO-K1 FLP-In human DP2 membranes; upper limit determinable 30 μM; read-out: IC50 ranges for inhibition of PGD2 binding to human DP2
Experimental: The ability of compounds to inhibit binding of prostaglandin D2 (PGD2) to the human DP2 receptor was measured using a scintillation proximity assay (SPA). Chinese Hamster Ovary FLP-In cell lines (CHO-K1 FLP-In, Invitrogen, catalog no. R758-07) were stably transfected with the human DP2 gene (Genebank: AY507142). Cell lines were grown in suspension in EX-CELL 302 CHO Serum-free medium (Sigma, catalog no. 14324C) supplemented with 1% Fetal Bovine Serum (Invitrogen no. 10099-141), 2 mM L-glutamine (Invitrogen, catalog no. 25030-081) and 0.5 mg/ml Hygromycin B (Invitrogen, catalog no. 10687-010). Cells were collected by centrifugation in a Beckman Coulter Allegra X-12R centrifuge at 150×g for 5 minutes at room temperature.
Membranes from transfected cells were isolated for binding assays. Cell pellets containing approximately 2×10^9 cells were resuspended in 35 ml of cold membrane homogenization buffer (10 mM Tris (Sigma, catalog no. T2663), 1 mM EDTA (Fluka BioChemika no. 03690), and 70 μl of protease inhibitor cocktail (Sigma, catalog no. P8340)). Cells were homogenized with 30 strokes of a dounce homogenizer (Kontes, catalog no. 885303-0040), and the solution centrifuged at 200×g for 10 minutes. The supernatant was transferred to a 50 ml Oakridge tube (Beckman, catalog no. 357000) and centrifuged in a Beckman Coulter Avanti J-26×PI centrifuge with a JA30.50 rotor at 81,000×g for 1 hour at 15° C. The pellet was resuspended in membrane storage buffer (50 mM Tris (Sigma, catalog no. T2663), 2.5 mM EDTA (Fluka BioChemika no. 03690), 5 mM magnesium chloride (Sigma, catalog no. M1028), 100 mg/ml sucrose (Sigma, catalog no. 50389) and a 1:500 dilution of protease inhibitor cocktail (Sigma, catalog no. P8340)) and the total protein was quantitated using a BCA protein measurement kit (Pierce, catalog no. 23225). Aliquots were frozen at −80° C. until used. Compounds were tested for their ability to inhibit PGD2 binding to the purified membranes. 5 μg of the purified membranes, 0.25 mg of wheat germ agglutinin PVT SPA beads (GE Healthcare, catalog no. RPNQ0060) and 5.5 nM of ^3H PGD2 (PerkinElmer, catalog no. NET-616) were mixed in assay buffer ((50 mM Tris (Sigma, catalog no. T2663), 10 mM magnesium chloride (Sigma, catalog no. M1028), 100 mM sodium chloride (Sigma, catalog no. S6546) and 0.1% bovine serum albumin (Sigma, catalog no. A2153)). Using a Multidrop bulk dispenser, 75 μl of the assay mixture was dispensed in Optiplates (PerkinElmer, catalog no. 6007299) containing the compounds to be tested. After a 60 minute incubation period at room temperature, the plates were read on a PerkinElmer Topcount NXT HTS, and individual wells were quantitated as counts per minute (CPM). Data were expressed as a percent of the difference between the maximum and minimum responses. IC50 values (the concentration of compound producing 50% of the maximal response) were determined using a two-parameter non-linear regression algorithm analyzed using CambridgeSoft Bioassay software. Table 2 gives the range of IC50 values for claimed compounds in the binding assay.

| SMILES | IC50 [nM] |
| --- | --- |
| O=C(O)Cn1c(=O)n(C2CCN(S(=O)(=O)c3ccc(Cl)cc3F)CC2)c2ncccc21 [Compound 30, 2-(3-(1-(4-chloro-2-fluorophenylsulfonyl)piperidin-4-yl)-2-oxo-2,3-dihydro-1H-imidazo[4,5-b]pyridin-1-yl)acetic acid] | < 1000 |
| O=C(O)Cn1c(=O)n(C2CCN(S(=O)(=O)c3ccc(Cl)cc3Cl)CC2)c2ncccc21 [Compound 31, 2-(3-(1-(2,4-dichlorophenyl-sulfonyl)piperidin-4-yl)-2-oxo-2,3-dihydro-1H-imidazo[4,5-b]pyridin-1-yl)acetic acid] | < 1000 |
| O=C(O)Cn1c(=O)n(C2CCN(S(=O)(=O)c3cccc4ccccc34)CC2)c2ncccc21 [Compound 32, 2-(3-(1-(naphthalen-1-ylsulfonyl)piperidin-4-yl)-2-oxo-2,3-dihydro-1H-imidazo[4,5-b]pyridin-1-yl)acetic acid] | 1000 to 10000 |
| O=C(O)Cn1c(=O)n(C2CCN(S(=O)(=O)c3ccccc3OC(F)(F)F)CC2)c2ncccc21 [Compound 33, 2-(2-oxo-3-(1-(2-(trifluoromethoxy)phenylsulfonyl)piperidin-4-yl)-2,3-dihydro-1H-imidazo[4,5-b]pyridin-1-yl)acetic acid] | 1000 to 10000 |
| O=C(O)Cn1c(=O)n(C2CCN(S(=O)(=O)C3CCCCC3)CC2)c2ncccc21 [Compound 34, 2-(3-(1-(cyclohexylsulfonyl)piperidin-4-yl)-2-oxo-2,3-dihydro-1H-imidazo [4,5-b]pyridin-1-yl)acetic acid] | 1000 to 10000 |
| O=C(O)Cn1c(=O)n(C2CCN(S(=O)(=O)c3ccc(Cl)c(Cl)c3)CC2)c2ncccc21 [Compound 35, 2-(3-(1-(3,4-dichlorophenyl-sulfonyl)piperidin-4-yl)-2-oxo-2,3-dihydro-1H-imidazo[4,5-b]pyridin-1-yl)acetic acid] | 1000 to 10000 |
| Cc1cc(F)ccc1S(=O)(=O)N1CCC(n2c(=O)n(CC(=O)O)c3cccnc32)CC1 [Compound 36, 2-(3-(1-(4-fluoro-2-methylphenyl-sulfonyl)piperidin-4-yl)-2-oxo-2,3-dihydro-1H-imidazo[4,5-b]pyridin-1-yl)acetic acid] | < 1000 |
| O=C(O)Cn1c(=O)n(C2CCN(S(=O)(=O)c3cccc(Cl)c3)CC2)c2ncccc21 [Compound 37, 2-(3-(1-(3-chlorophenyl-sulfonyl)piperidin-4-yl)-2-oxo-2,3-dihydro-1H-imidazo[4,5-b]pyridin-1-yl)acetic acid] | 1000 to 10000 |
| Cc1cccc(S(=O)(=O)N2CCC(n3c(=O)n(CC(=O)O)c4cccnc43)CC2)c1 [Compound 38, 2-(2-oxo-3-(1-(m-tolylsulfonyl)piperidin-4-yl)-2,3-dihydro-1H-imidazo[4,5-b]pyridin-1-yl)acetic acid] | 1000 to 10000 |
| O=C(O)Cn1c(=O)n(C2CCN(S(=O)(=O)c3ccc(C(F)(F)F)cc3)CC2)c2ncccc21 [Compound 39, 2-(2-oxo-3-(1-(4-(trifluoromethyl)phenylsulfonyl)piperidin-4-yl)-2,3-dihydro-1H-imidazo[4,5-b]pyridin-1-yl)acetic acid] | 1000 to 10000 |
| O=C(O)Cn1c(=O)n(C2CCN(S(=O)(=O)c3ccc(F)c(F)c3)CC2)c2ncccc21 [Compound 40, 2-(3-(1-(3,4-difluorophenylsulfonyl)piperidin-4-yl)-2-oxo-2,3-dihydro-1H-imidazo[4,5-b]pyridin-1-yl)acetic acid] | 1000 to 10000 |
| O=C(O)Cn1c(=O)n(C2CCN(S(=O)(=O)c3cccc(C(F)(F)F)c3)CC2)c2ncccc21 [Compound 41, 2-(2-oxo-3-(1-(3-(trifluoromethyl)phenylsulfonyl)piperidin-4-yl)-2,3-dihydro-1H-imidazo[4,5-b]pyridin-1-yl)acetic acid] | 1000 to 10000 |
| O=C(O)Cn1c(=O)n(C2CCN(S(=O)(=O)c3ccc(OC(F)(F)F)cc3)CC2)c2ncccc21 [Compound 42, 2-(2-oxo-3-(1-(4-(trifluoromethoxy)phenylsulfonyl)piperidin-4-yl)-2,3-dihydro-1H-imidazo[4,5-b]pyridin-1-yl)acetic acid] | 1000 to 10000 |
| CCS(=O)(=O)N1CCC(n2c(=O)n(CC(=O)O)c3cccnc32)CC1 [Compound 43, 2-(3-(1-(ethylsulfonyl)piperidin-4-yl)-2-oxo-2,3-dihydro-1H-imidazo[4,5-b]pyridin-1-yl)acetic acid] | 10000 to 30000 |
| CCCS(=O)(=O)N1CCC(n2c(=O)n(CC(=O)O)c3cccnc32)CC1 [Compound 44, 2-(2-oxo-3-(1-(propylsulfonyl)piperidin-4-yl)-2,3-dihydro-1H-imidazo[4,5-b]pyridin-1-yl)acetic acid] | 1000 to 10000 |
| O=C(O)Cn1c(=O)n(C2CCN(S(=O)(=O)c3cccc(OC(F)(F)F)c3)CC2)c2ncccc21 [Compound 45, 2-(2-oxo-3-(1-(3-(trifluoromethoxy)phenylsulfonyl)piperidin-4-yl)-2,3-dihydro-1H-imidazo[4,5-b]pyridin-1-yl)acetic acid] | 1000 to 10000 |
| Cc1ccc(S(=O)(=O)N2CCC(n3c(=O)n(CC(=O)O)c4cccnc43)CC2)cc1 [Compound 46, 2-(2-oxo-3-(1-(p-tolylsulfonyl)piperidin-4-yl)-2,3-dihydro-1H-imidazo[4,5-b]pyridin-1-yl)acetic acid] | 1000 to 10000 |
| COc1ccc(S(=O)(=O)N2CCC(n3c(=O)n(CC(=O)O)c4cccnc43)CC2)cc1OC [Compound 47, 2-(3-(1-(3,4-dimethoxyphenyl-sulfonyl)piperidin-4-yl)-2-oxo-2,3-dihydro-1H-imidazo[4,5-b]pyridin-1-yl)acetic acid] | 10000 to 30000 |
| CC(C)CS(=O)(=O)N1CCC(n2c(=O)n(CC(=O)O)c3cccnc32)CC1 [Compound 48, 2-(3-(1-(isobutylsulfonyl)piperidin-4-yl)-2-oxo-2,3-dihydro-1H-imidazo[4,5-b]pyridin-1-yl)acetic acid] | 1000 to 10000 |
| O=C(O)Cn1c(=O)n(C2CCN(S(=O)(=O)c3cccc4cccnc34)CC2)c2ncccc21 [Compound 49, 2-(2-oxo-3-(1-(quinolin-8-ylsulfonyl)piperidin-4-yl)-2,3-dihydro-1H-imidazo[4,5-b]pyridin-1-yl)acetic acid] | < 1000 |
| Cc1cc(C)c(S(=O)(=O)N2CCC(n3c(=O)n(CC(=O)O)c4cccnc43)CC2)c(C)c1 [Compound 50, 2-(3-(1-(mesitylsulfonyl)piperidin-4-yl)-2-oxo-2,3-dihydro-1H-imidazo[4,5-b]pyridin-1-yl)acetic acid] | 1000 to 10000 |
| O=C(O)Cn1c(=O)n(C2CCN(S(=O)(=O)c3ccc(F)cc3Cl)CC2)c2ncccc21 [Compound 51, 2-(3-(1-(2-chloro-4-fluorophenyl-sulfonyl)piperidin-4-yl)-2-oxo-2,3-dihydro-1H-imidazo[4,5-b]pyridin-1-yl)acetic acid] | < 1000 |
| CC(C)S(=O)(=O)N1CCC(n2c(=O)n(CC(=O)O)c3cccnc32)CC1 [Compound 52, 2-(3-(1-(isopropylsulfonyl)piperidin-4-yl)-2-oxo-2,3-dihydro-1H-imidazo[4,5-b]pyridin-1-yl)acetic acid] | 1000 to 10000 |
| Cc1ccc(S(=O)(=O)N2CCC(n3c(=O)n(CC(=O)O)c4cccnc43)CC2)s1 [Compound 53, 2-(3-(1-(5-methylthiophen-2-ylsulfonyl)piperidin-4-yl)-2-oxo-2,3-dihydro-1H-imidazo[4,5-b]pyridin-1-yl)acetic acid] | 1000 to 10000 |
